In patent US8455437B2, “Method to predict and prevent oxygen-induced inflammatory tissue injury” (The United States of America, as Represented by the …, priority 2005, dated 2013):

Tests used:
endotoxin-treated mice = assay: Lung injury in endotoxin-treated mice; assay type: in vivo
A2AR gene deficient mice = assay: Selectivity control: lung inflammation in A2AR gene deficient mice; assay type: in vivo; conditions: dosing regimen used to treat WT mice (data not shown)
Source text: Thus, the exogenously added selective, synthetic A2AR agonist compensated for the loss of endogenously formed adenosine in oxygenated and inflamed lungs thereby decreasing lung injury and rescuing mice from death.

[1] = system: oxygenated mice with inflammatory lung injury; conditions: mouse, in vivo
[2] = system: mice with acute inflammatory lung injury; conditions: mouse, in vivo
[3] = i.t. injections, endotoxin-treated mice (data not shown)

Row | Structure (SMILES) | pulmonary PMN sequestration (endotoxin-treated mice; histological examination) | lung tissue damage as assessed by lung injury score (endotoxin-treated mice; histological examination (not shown)) | accumulation of PMN (endotoxin-treated mice; [3]) | lung gas exchange (endotoxin-treated mice; [3]) | lung injury (endotoxin-treated mice; [3]) | lung vascular permeability (endotoxin-treated mice; [3]) | production of reactive oxygen metabolites (endotoxin-treated mice; [3]) | lung inflammation in A2AR gene deficient mice (A2AR gene deficient mice) | number of deaths (oxygenation-induced death) [1] | BAL fluid protein [2] | alveolo-capillary permeability (protein recovered by broncho-alveolar lavage) [2] | arterial pO2 after return to normal atmosphere [2] | death in short-term assays [2] | deaths of mice with inflamed lungs versus 21% ambient oxygen [2] | inflammatory lung injury (exudate protein in alveolar spaces, arterial blood oxygen tension) [2] | mice that died during 15 min equilibration period in normal atmosphere [2]
1 | CCNC(=O)[C@H]1O[C@@H](n2cnc3c(N)nc(NCCc4ccc(CCC(=O)O)cc4)nc32)[C@H](O)[C@@H]1O [CGS21680] | inhibition | fourfold decrease | significantly decreased | improved | significantly inhibited | less pronounced increases | reduced | did not affect | dramatically reduced | – | – | – | – | – | – | –
2 | O=O [oxygen] | – | – | – | – | – | – | – | – | – | small accumulation | much more pronounced increase | decrease | did not result in death | Five times more | exacerbation | three out of seven
